# Test results published in paper PMC11375437, “Selective labelling of GBA2 in cells with fluorescent β-D-arabinofuranosyl cyclitol aziridines” (Chemical Science, 2024).
# Legend:
# GBA2 [1] = experiment: Labelling of GBA2 orthologue in zebrafish larvae homogenates; format: biochemical, zebrafish (Danio rerio); settings: 1 h at 37 °C; ABP 3 and 7 at 1 μM, ABP 4 and 5 at 2.5 μM
# Protocol: (§1) GBA2 orthologs are highly conserved among different species. […] The labelling capability of β-D-Araf aziridine ABPs toward GBA2 orthologs in these species was therefore evaluated. Homogenates of zebrafish larvae or mice brain homogenates were incubated with β-D-Araf ABPs 3–5 or broad-spectrum ABP 7 (Fig. 4).
# (§2) Fig. 4 Fluorescent gel images of selective labelling of GBA2 orthologues by β-D-Araf aziridine ABPs in different species. Cyclophellitol-aziridine ABP 7 (1 μM) and β-D-Araf ABPs (ABP 3 at 1 μM and ABP 4 and 5 at 2.5 μM) were incubated with homogenates of zebrafish (15 μg total protein) and mice brain (15 μg total protein) for 1 h at 37 °C. […]
# (§3) were transferred to nitrocellulose membrane for western blotting. Ponceau S staining was used to show total protein loading. […]
# (§4) 2.12 Reactivity of β-D-Araf aziridines towards GBA2 orthologue in other species β-D-Araf aziridine ABP 3-5 or ABP 7 was incubated with homogenates of zebrafish (Danio rerio) larvae or mice brain for 1 h at 37 °C. […] The zebrafish homogenates were passed through a desalting column (in the same way as described for the irreversibility evaluation above) to remove interference from biological pigments when scanning at λEX 473 nm and λEM ≥ 510 nm for BODIPY green fluorescence. […]
# GBA2 [2] = biological target: T1, GBA2 (Mus musculus, UniProt Q69ZF3); experiment: Labelling of GBA2 orthologue in mice brain homogenates; format: biochemical; settings: 1 h at 37 °C; ABP 3 and 7 at 1 μM, ABP 4 and 5 at 2.5 μM
# T1 construct: from tissue; host or cells: mouse brain homogenate
# T1 sequence (Q69ZF3 1-918): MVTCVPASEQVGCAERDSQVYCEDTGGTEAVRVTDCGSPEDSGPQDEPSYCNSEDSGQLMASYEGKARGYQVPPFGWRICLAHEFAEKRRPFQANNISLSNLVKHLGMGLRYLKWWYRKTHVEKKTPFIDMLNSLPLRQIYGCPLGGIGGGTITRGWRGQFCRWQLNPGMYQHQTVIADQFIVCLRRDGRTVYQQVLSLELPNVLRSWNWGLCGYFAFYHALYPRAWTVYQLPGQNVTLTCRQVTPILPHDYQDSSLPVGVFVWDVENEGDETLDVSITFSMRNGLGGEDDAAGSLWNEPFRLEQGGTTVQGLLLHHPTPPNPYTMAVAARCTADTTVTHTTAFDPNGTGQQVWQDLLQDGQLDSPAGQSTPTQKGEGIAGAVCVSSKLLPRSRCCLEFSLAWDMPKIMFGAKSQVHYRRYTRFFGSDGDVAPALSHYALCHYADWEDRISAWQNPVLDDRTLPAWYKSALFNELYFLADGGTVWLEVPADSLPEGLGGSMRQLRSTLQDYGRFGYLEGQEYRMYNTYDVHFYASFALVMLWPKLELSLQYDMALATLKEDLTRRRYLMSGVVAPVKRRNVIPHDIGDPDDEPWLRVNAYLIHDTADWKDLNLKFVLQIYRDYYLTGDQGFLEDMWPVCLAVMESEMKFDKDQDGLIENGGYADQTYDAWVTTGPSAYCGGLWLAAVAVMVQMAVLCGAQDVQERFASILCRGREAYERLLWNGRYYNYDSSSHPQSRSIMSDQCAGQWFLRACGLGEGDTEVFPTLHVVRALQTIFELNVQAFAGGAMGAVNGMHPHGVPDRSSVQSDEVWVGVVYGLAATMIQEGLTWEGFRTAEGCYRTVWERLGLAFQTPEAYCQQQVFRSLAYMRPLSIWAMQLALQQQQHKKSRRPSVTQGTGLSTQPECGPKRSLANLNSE
# Protocol: as §1, §2, §3, §4
structure (smiles),measurement,setting,value
CN1/C(=C/C=C/C=C/C2=[N+](CCCCCC(=O)NCc3cn(CCCCCCCCN4[C@@H]5[C@H](CO)[C@@H](O)[C@H](O)[C@@H](O)[C@@H]54)nn3)c3ccccc3C2(C)C)C(C)(C)c2ccccc21 (some centres unmarked) [ABP 7],Labelling selectivity in zebrafish larvae homogenates,GBA2 [1],show cross-reactivity towards GBA1
same,Labelling selectivity in mice brain homogenates,GBA2 [2],show cross-reactivity towards GBA1
